{
  "source": "paper PMC8976226",
  "about": "(Mutagenesis, 2022)",
  "key": {"GADD45a gene [1]": {"tested_on": "GADD45a gene", "conditions": "published fragrance safety assessment; cited from earlier work"}, "mouse": {"tested_on": "mouse", "conditions": "cited from earlier work"}, "[2]": {"conditions": "weight of evidence of all available in vitro and in vivo data"}, "[3]": {"tested_on": "human peripheral lymphocytes", "conditions": "cited from earlier work"}, "GADD45a gene [4]": {"tested_on": "GADD45a gene", "assay": "BlueScreen HC assay", "conditions": "fragrance materials, TK6 cells"}, "mammalian cell": {"tested_on": "mammalian cell", "assay": "In vitro mammalian cell micronucleus test", "format": "cell-based", "conditions": "overall outcome in current dataset"}, "[5]": {"tested_on": "Salmonella typhimurium, Escherichia coli tester strains", "assay": "Bacterial reverse mutation test", "format": "cell-based", "conditions": "overall outcome"}, "[6]": {"tested_on": "Salmonella typhimurium, Escherichia coli tester strains", "conditions": "cited from earlier work"}, "L5178 TK +/− cell": {"tested_on": "L5178 TK +/− cell", "conditions": "cited from earlier work"}, "[7]": {"tested_on": "Chinese hamster V79 cells", "conditions": "cited from earlier work"}, "[8]": {"conditions": "cited from earlier work"}, "[9]": {"tested_on": "Chinese hamster lung, ovary, or fibroblast cells", "conditions": "ref RIFM Database, cited from earlier work; for chromosomal aberration assay result: Chinese hamster lung, ovary, or fibroblast cells"}, "[10]": {"tested_on": "reconstructed skin (EpiDerm™)", "conditions": "cited from earlier work"}, "mice": {"tested_on": "mice", "conditions": "cited from earlier work"}},
  "note": "Counter-ions that a name gives are not always drawn. Like-named read-outs stand apart in the source and are kept apart here.",
  "data": [
    {"compound": "CCCCCCC(OCC)OCC", "note": "[1,1-diethoxyheptane]", "values": [
      {"measurement": "BlueScreen HC result", "setting": "GADD45a gene [1]", "value": "negative"}
    ]},
    {"compound": "CC12CCCC(C)(CC1)C2=NO", "note": "[1,5-dimethylbicyclo[3.2.1]octan-8-one-oxime]", "values": [
      {"measurement": "in vivo micronucleus test result", "setting": "mouse", "value": "negative"},
      {"measurement": "genotoxic potential conclusion (WoE)", "setting": "[2]", "value": "not genotoxic"},
      {"measurement": "in vitro micronucleus assay result", "setting": "[3]; 3- and 24- h time points with and without metabolic activation", "value": "Positive"},
      {"measurement": "BlueScreen HC result", "setting": "GADD45a gene [4]", "value": "negative"},
      {"measurement": "in vitro MNT result", "setting": "mammalian cell", "value": "positive"}
    ]},
    {"compound": "CC(=O)C1CC(C)=CC(C)C1C", "note": "(stereo not shown) [1-(3,5,6-trimethyl-3-cyclohexen-1-yl)ethan-1-one]", "values": [
      {"measurement": "genotoxic potential conclusion (WoE)", "setting": "[2]", "value": "unlikely to have genotoxic potential in vivo"},
      {"measurement": "in vitro micronucleus assay result", "setting": "[3]", "value": "negative"},
      {"measurement": "BlueScreen HC result", "setting": "GADD45a gene [4]", "value": "negative"},
      {"measurement": "Ames assay result", "setting": "[5]", "value": "positive"},
      {"measurement": "Ames assay result", "setting": "[6]; Escherichia coli strain WP2uvrA without metabolic activation", "value": "positive"},
      {"measurement": "Ames assay result, third confirmatory study", "setting": "[6]; similar concentrations, E. coli WP2uvrA or TA102", "value": "no positive effects"},
      {"measurement": "mammalian cell line mutagenicity study (HPRT) result", "setting": "L5178 TK +/− cell", "value": "negative"}
    ]},
    {"compound": "CC(=CC#N)CCc1ccccc1", "note": "[3-methyl-5-phenylpent-2-enenitrile]", "values": [
      {"measurement": "in vivo micronucleus test result", "setting": "mouse", "value": "negative"},
      {"measurement": "genotoxic potential conclusion (WoE)", "setting": "[2]", "value": "not genotoxic"},
      {"measurement": "BlueScreen HC result", "setting": "GADD45a gene [4]", "value": "negative"},
      {"measurement": "in vitro MNT result", "setting": "mammalian cell", "value": "positive"},
      {"measurement": "in vitro micronucleus assay result", "setting": "[7]; 4-h time point with metabolic activation", "value": "Positive"}
    ]},
    {"compound": "CC(C)C12CCC(C)(O)C1C2", "note": "(stereo not shown) [4-thujanol]", "values": [
      {"measurement": "in vivo micronucleus study result", "setting": "mouse", "value": "negative"},
      {"measurement": "in vitro micronucleus study result", "setting": "[3]; 4-h time point, absence of metabolic activation", "value": "positive"},
      {"measurement": "BlueScreen HC result", "setting": "GADD45a gene [4]", "value": "negative"},
      {"measurement": "in vitro MNT result", "setting": "mammalian cell", "value": "positive"}
    ]},
    {"compound": "Cc1cccc2nccnc12", "note": "[5-methylquinoxaline]", "values": [
      {"measurement": "genotoxic potential conclusion (WoE)", "setting": "[2]", "value": "devoid of genotoxic activity in vivo"},
      {"measurement": "in vitro micronucleus study result", "setting": "[3]; 4-h treatment", "value": "negative"},
      {"measurement": "in vitro micronucleus study result", "setting": "[3]; without metabolic activation, 24-h treatment", "value": "positive"},
      {"measurement": "BlueScreen HC result", "setting": "GADD45a gene [4]", "value": "negative"},
      {"measurement": "in vivo micronucleus assays result", "setting": "[8]; two assays", "value": "negative"},
      {"measurement": "in vitro MNT result", "setting": "mammalian cell", "value": "positive"}
    ]},
    {"compound": "CC(C)C(=O)O", "note": "[Isobutyric acid]", "values": [
      {"measurement": "Ames test result", "setting": "[6]", "value": "negative"}
    ]},
    {"compound": "COc1ccc(COC=O)cc1", "note": "[anisyl formate]", "values": [
      {"measurement": "in vitro micronucleus assay result", "setting": "[3]", "value": "negative"},
      {"measurement": "BlueScreen HC result", "setting": "GADD45a gene [4]", "value": "negative"},
      {"measurement": "mammalian cell line mutagenicity study (MLA/HPRT) result", "setting": "L5178 TK +/− cell", "value": "negative"}
    ]},
    {"compound": "N#C/C=C/c1ccccc1", "note": "[cinnamyl nitrile, Cinnamyl nitrile]", "values": [
      {"measurement": "genotoxic potential conclusion (WoE)", "setting": "[2]", "value": "lack genotoxic potential in vivo"},
      {"measurement": "BlueScreen HC result", "setting": "GADD45a gene [4]", "value": "negative"},
      {"measurement": "chromosomal aberration assay result", "setting": "[9]", "value": "positive"},
      {"measurement": "in vitro micronucleus result", "setting": "[7]; Chinese hamster V79 cells", "value": "negative"}
    ]},
    {"compound": "COC1CC2CCC1(C)C2(C)C", "note": "(stereo not shown) [isobornyl methyl ether]", "values": [
      {"measurement": "in vitro micronucleus confirmatory assay result", "setting": "[3]; confirmatory assay, dose response not observed", "value": "increases only at the highest dose level"},
      {"measurement": "in vitro micronucleus study result", "setting": "[3]; presence of metabolic activation, 4-h time point", "value": "positive"},
      {"measurement": "BlueScreen HC result", "setting": "GADD45a gene [4]", "value": "negative"},
      {"measurement": "3D skin micronucleus study result", "setting": "[10]", "value": "negative"},
      {"measurement": "in vitro MNT result", "setting": "mammalian cell", "value": "positive"}
    ]},
    {"compound": "CC(C)CO", "note": "[isobutyl alcohol]", "values": [
      {"measurement": "in vivo micronucleus test result", "setting": "[8]", "value": "negative"}
    ]},
    {"compound": "COC(=O)CC(C)=O", "note": "[methyl acetoacetate, Methyl acetoacetate]", "values": [
      {"measurement": "genotoxic potential conclusion (WoE)", "setting": "[2]", "value": "lack genotoxic potential in vivo"},
      {"measurement": "in vitro micronucleus result", "setting": "[3]; human lymphocytes", "value": "negative"},
      {"measurement": "BlueScreen HC result", "setting": "GADD45a gene [4]", "value": "negative"},
      {"measurement": "chromosomal aberration assay result", "setting": "[9]", "value": "positive"}
    ]},
    {"compound": "COC(=O)c1ccccc1N", "note": "[methyl anthranilate, Methyl anthranilate]", "values": [
      {"measurement": "BlueScreen HC result", "setting": "GADD45a gene [4]", "value": "negative"},
      {"measurement": "2-year in vivo carcinogenicity study result", "setting": "mice", "value": "did not show any carcinogenic effects"},
      {"measurement": "in vitro chromosomal aberration study result", "setting": "[9]; Chinese hamster fibroblast cell line (B 241)", "value": "positive"},
      {"measurement": "chromosomal aberration assay result", "setting": "[9]", "value": "positive"}
    ]},
    {"compound": "CC(=O)/C=C/C1C(C)=CCCC1(C)C", "note": "(stereo not drawn) [α-ionone, α-Ionone]", "values": [
      {"measurement": "in vivo mouse micronucleus study result", "setting": "mouse", "value": "negative"},
      {"measurement": "genotoxic potential conclusion (WoE)", "setting": "[2]", "value": "lack genotoxic potential in vivo"},
      {"measurement": "in vitro micronucleus study result", "setting": "[3]; human peripheral lymphocytes", "value": "negative"},
      {"measurement": "BlueScreen HC result", "setting": "GADD45a gene [4]", "value": "negative"},
      {"measurement": "chromosomal aberration assay result", "setting": "[9]", "value": "positive"}
    ]}
  ]
}
